This note sets out measurements from patent US20250281548A1, “ANTIMICROBIAL COMPOSITIONS COMPRISING EXTRACELLULAR VESICLES AND METHODS THEREOF” (Washington State University, priority 2024, published 2025).

One experiment has as its system C. auris. Description: Cellular ROS assay in C. auris culture. In kind it is cell-based, Candida auris. The note with it: PAO1 D-EVs 0.25 μg/μl, E. coli D-EVs 0.15 μg/μl; ertapenem, tetracycline 2 mg/mL. On the procedure:
(§1) FIGS. 16A-16H summarize the EV bacterial protocol adapted for a fungal pathogen, C. auris. […] Fungal cell growth was monitored by measuring the OD600 of the cell culture. […] FIG. 16D illustrates the overall cellular levels of ROS radicals (including ·O2^− and ·OH) of C. auris in YPD broth culture in response to bacterial D-EV treatments. After 24 hr. of growth, C. auris cell culture (OD600=0.5) was mixed with a Cellular ROS Assay Kit (ab186027) and further incubated for 1 hr. Then, one dose of D-EVs extracted from either PAO1 (0.25 μg/μl) or E. coli (0.15 μg/μl) was added, followed by immediate monitoring of changes in fluorescence intensity (n=4). […] H2O2 (20%) was used as a positive control to stimulate C. auris to produce ·OH species.

The test system of experiment [1] is P. aeruginosa PAO1 biofilms. Description: PAO1 colony biofilm growth, viable cell count (Log10 CFU/cm^2). The note with it: for Effect of ferric ions alone on 96-h PAO1 biofilm growth (in words): 10, 25, 50 μM Fe^3+. In kind it is cell-based. On the procedure: P. aeruginosa (PAO1) from a −80° C. freezer was streaked on tryptic soy agar (TSA, BD Difco™ Dehydrated Culture Media, DF0369-17-6) and incubated overnight at 37° C. The P. aeruginosa was maintained on TSA plates at 4° C. and an inoculum was prepared by transferring a touch from this plate into 10 mL of tryptic soy broth (BD Bacto™) and incubated overnight. Then, a volume of 100 μL (OD600=0.1) was used to seed 47-mm sterilized filter membranes (Membrane Solutions MCE Gridded Membrane Filter, Mixed Cellulose Esters Membrane Filter, Pore Size: 0.45 μm) on TSA petri dishes. The plates were incubated at either 37° C. or 33° C. At desired time points (0, 1, 2, 4, 8, 12, 16, 24, 32, 48, 72, 85, 96, and 120 h), the biofilm was suspended in 0.9% NaCl to prepare serial dilutions for colony forming unit (CFU) counting. The viable cell concentration (CFU/cm^2) was calculated according to the literature. All experiments were done under aseptic conditions. TSA and TSB were autoclaved at 121° C. and […] for 50 min/L.
To quantify the effects of G-EVs and D-EVs on the growth behavior of P. aeruginosa PAO1 biofilms, biofilms grown for 2 hr. (lag phase), 8 hr. (exponential phase), and 24 hr. (stationary phase) were tested. Briefly, an inoculum was prepared by transferring a touch from the P. aeruginosa PAO1-TSA plates into 10 ml of TSB and incubating the plates at 37° C. overnight. A volume of 2.5 μL (OD600˜0.5) was used to seed sterile 13-mm polycarbonate membranes (WHA10417401, Sigma-Aldrich) on TSA plates and incubated at 37° C. Biofilms grown for 2 hr. were treated with one dose of G-EVs (0.028 μg/μL) or D-EVs (0.33 μg/μL) and incubated at 37° C. for 24 hours. Biofilms grown for 8 hr. were treated with one dose of G-EVs (0.037 μg/μL) or D-EVs (0.33 μg/μL) and incubated at 37° C. for 24 hours. Three doses of D-EVs (0.33 μg/μL) were applied (one dose every 24 h) to biofilms grown for 24 h, and the plates were incubated at 37° C. Then viable cells were counted and reported as CFU/cm^2.
To test if the suppression of PAO1 biofilm growth is caused by D-EV-induced excessive iron uptake by D-EV recipient cells leading to the activation of bacterial cell death, the research team examined whether D-EV-induced excessive iron uptake could improve the poor efficacy of the D EVs against 96-h biofilms (FIG. 9D). […]
The viability of treated P. aeruginosa PAO1 biofilms was investigated and compared to control. P. aeruginosa PAO1 biofilms at 2 hr., 8 hr., 24 hr., 48 hr., and 96 hr. were individually treated with a one-dose of P. aeruginosa PAO1 D-EVs±iron (50 μM) and the biofilm inhibition was quantified in the term of log10 CFU·cm^−2.

Experiment [2] deals with planktonic Candida auris cells. Nature of the experiment: Growth of planktonic C. auris cells (OD600). In kind it is cell-based. The conditions noted are these: one dose, PAO1 D-EVs 0.25 μg/μl, E. coli D-EVs 0.15 μg/μl, YPD broth. On the procedure: as §1
Candida auris (B11220, ATCC) frozen at −80° C. was activated in yeast peptone dextrose (YPD) broth overnight at 37° C. Cells were be maintained at 4° C. on YPD-agar plates. The in vitro C. auris biofilms were be prepared by first activating the cultures at 4° C. in YPD broth at 37° C., then transferring a volume of 2.5 μL (OD600˜0.5) onto sterile 13-mm polycarbonate membrane (WHA10417401, Sigma-Aldrich) on YPD-agar plates (FIG. 17). The plates were then incubated at 37° C. for 0 h, 24 h, 48 h, and 72 h, respectively, for the following experiments.

Take `C[C@@H](O)[C@H]1C(=O)N2C(C(=O)O)=C(S[C@@H]3CN[C@H](C(=O)Nc4cccc(C(=O)O)c4)C3)[C@H](C)[C@H]12` [ertapenem]: the “ROS production in C. auris (in words)” value in the experiment with C. auris is on record as “No change in ROS production”.

Consider `[Fe+3]` [ferric ions], for which, in experiment [1] (2, 8, 24, 48, 96 hr. biofilms, one dose D-EVs ± iron 50 μM, 24 hr. exposure), the “Growth of PAO1 biofilms at 2-96 hr. after one dose (in words)” value is listed as “increased”. The “Effect of ferric ions alone on 96-h PAO1 biofilm growth (in words)” value in experiment [1] (96-h biofilms) is on record as “marginally promoted biofilm growth”; in experiment [1] (96-h biofilms, listed as Ferric ions), “very minimal effect”. Moreover, the “Growth of 96-h PAO1 biofilm with ferric ions alone” value in experiment [1] (96-h biofilms, ferric ions alone (10-50 μM), PBS control ~8.2) came out at 8.7 log10.

For `OO` [H2O2 (30%), H2O2], the “C. auris growth (in words)” value in experiment [2] is “effectively inhibited fungal growth”.
